Entries after “also recorded” stand apart in the source; their conditions may differ.
Tests used:
[1] = molecular target: T1, terminal deoxynucleotide transferase (TdT) (Bos taurus, UniProt P06526); assay: Tailing / 3'-end labeling of a 12-mer oligonucleotide with terminal transferase (Procedure 1); assay type: biochemical; settings: for number of contiguous modified bases added to the 3' terminus: TdT-catalyzed end labeling
T1 construct: purchased Stratagene (La Jolla, Calif.)
Protocol: A 12-mer oligonucleotide (5′-[…]-3′; SEQ ID NO: 1) was 5′ labeled with ^32P ATP and T4 Polynucleotide Kinase according to established methods (Roychoudhury and Wu, 1980; Sambrook, Fritch, and Maniatis, 1989). Aliquots of the mixture containing 10 ng of kinased oligo were combined with 100 pmol of fluorescein 12-dUTP and 5 units of terminal deoxynucleotide transferase (TdT) in 100 mM potassium cacodylate, 2 mM CoCl2, pH 7.2 (final volume of 10 μL). […] The reactions were quenched by the addition of loading dye and 4 μL aliquots were loaded onto a sequencing gel (14″×17″, poured with 20% acrylamide/7M urea/1×TBE), electrophoresed for 3 hours at 55 watts/[…] and exposed to X-ray film.

Taq DNA polymerase = molecular target: T2, Taq DNA polymerase (Thermus aquaticus, UniProt P19821); assay: Polymerase primer extension assay, 12-mer primer/18-mer template (Procedure 2); assay type: biochemical; settings: template with maximum four dTTP/dUTP sites
T2 construct: purchased Stratagene (La Jolla, Calif.)
T2 sequence (P19821 whole entry): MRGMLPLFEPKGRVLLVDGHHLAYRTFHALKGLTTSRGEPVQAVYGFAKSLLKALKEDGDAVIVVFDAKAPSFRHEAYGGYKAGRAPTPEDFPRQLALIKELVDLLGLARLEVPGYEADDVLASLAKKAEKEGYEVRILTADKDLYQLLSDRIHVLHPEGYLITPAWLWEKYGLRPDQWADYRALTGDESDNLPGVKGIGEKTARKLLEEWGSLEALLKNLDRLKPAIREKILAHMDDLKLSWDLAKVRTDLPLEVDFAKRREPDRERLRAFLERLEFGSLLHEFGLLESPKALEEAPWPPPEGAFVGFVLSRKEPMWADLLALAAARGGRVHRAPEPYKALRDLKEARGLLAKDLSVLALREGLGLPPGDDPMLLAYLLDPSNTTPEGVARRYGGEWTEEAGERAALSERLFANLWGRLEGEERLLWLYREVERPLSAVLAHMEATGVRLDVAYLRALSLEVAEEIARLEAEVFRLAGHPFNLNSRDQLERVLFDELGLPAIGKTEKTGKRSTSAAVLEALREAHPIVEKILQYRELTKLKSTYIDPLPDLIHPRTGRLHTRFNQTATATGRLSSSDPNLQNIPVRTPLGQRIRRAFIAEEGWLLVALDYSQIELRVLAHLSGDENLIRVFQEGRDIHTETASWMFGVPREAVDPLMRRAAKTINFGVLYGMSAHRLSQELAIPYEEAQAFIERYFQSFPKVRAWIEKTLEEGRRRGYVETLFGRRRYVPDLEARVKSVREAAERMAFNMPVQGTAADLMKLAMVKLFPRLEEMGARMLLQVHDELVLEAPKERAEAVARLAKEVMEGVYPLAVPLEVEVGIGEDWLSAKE
Protocol: (§1) Aliquots containing 10 ng of the kinased 12-mer described in procedure 1 were combined with 40 ng of an 18-mer oligonucleotide (5′-[…]-3′; SEQ ID NO: 2) in 8 μL of T-7 buffer (20 mM MgCl2, 50 mM NaCl, 40 mM Tris, pH 7.5) or Klenow buffer (5 mM MgCl2, 4 mM DTT, 35 mM Tris, pH 7.5). To each reaction was added 1 μL of a solution containing 100 μM each of dATP and fluorescein 12-dUTP. The reaction contents were heated to 95° C. for 2 minutes and allowed to cool to room temperature. Five units (1 μL) of the appropriate polymerase were added and the reaction mixtures were incubated at 37° C. for 10 minutes. Control reactions were run which contained no polymerase. Polymerase activity was terminated by addition of 3 μL of 1M EDTA and the extension products were separated by electrophoresis using a 20% acrylamide gel and the results visualized by autoradiography. A measurement of the degree of polymerase-catalyzed primer extension obtained in the presence of modified nucleotide analogs according to the invention can be determined by substituting the modified nucleotide (1 μL of 100 μM) for fluorescein 12-dUTP in procedure 2.

Klenow polymerase = molecular target: T3, Klenow polymerase (Escherichia coli, UniProt P00582); assay: Polymerase primer extension assay (Procedure 2); assay type: biochemical, E. coli; settings: Procedure 2, results not shown
T3 construct: Incorporation results using SAc-dUTP and the Klenow fragment of DNA polymerase I following Procedure 3
T3 sequence (P00582 324-928): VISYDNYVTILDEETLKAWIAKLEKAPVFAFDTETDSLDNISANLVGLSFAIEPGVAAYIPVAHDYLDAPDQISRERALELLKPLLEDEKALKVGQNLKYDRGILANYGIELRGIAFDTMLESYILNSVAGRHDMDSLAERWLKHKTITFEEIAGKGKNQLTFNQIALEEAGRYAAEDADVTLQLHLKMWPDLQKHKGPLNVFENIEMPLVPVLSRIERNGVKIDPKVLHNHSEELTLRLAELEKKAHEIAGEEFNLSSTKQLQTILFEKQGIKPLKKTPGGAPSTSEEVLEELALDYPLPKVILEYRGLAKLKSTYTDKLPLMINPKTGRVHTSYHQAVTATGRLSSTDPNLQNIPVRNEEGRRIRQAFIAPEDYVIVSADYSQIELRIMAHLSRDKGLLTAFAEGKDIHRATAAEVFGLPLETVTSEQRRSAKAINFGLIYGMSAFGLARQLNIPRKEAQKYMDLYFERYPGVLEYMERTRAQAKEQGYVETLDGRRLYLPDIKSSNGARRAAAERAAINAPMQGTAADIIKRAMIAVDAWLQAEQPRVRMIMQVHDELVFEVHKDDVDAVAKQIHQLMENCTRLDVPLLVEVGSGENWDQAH
Protocol: as §1

[2] = test system: exonuclease free Klenow polymerase; settings: Procedure 2, results not shown
Protocol: as §1

T7 DNA polymerase = T7 DNA polymerase (Escherichia phage T7, UniProt P00581); settings: Procedure 2; for incorporation into DNA by T7 DNA polymerase in primer extension: template with maximum four dTTP/dUTP sites
Sequence of T7 DNA polymerase (P00581 whole entry): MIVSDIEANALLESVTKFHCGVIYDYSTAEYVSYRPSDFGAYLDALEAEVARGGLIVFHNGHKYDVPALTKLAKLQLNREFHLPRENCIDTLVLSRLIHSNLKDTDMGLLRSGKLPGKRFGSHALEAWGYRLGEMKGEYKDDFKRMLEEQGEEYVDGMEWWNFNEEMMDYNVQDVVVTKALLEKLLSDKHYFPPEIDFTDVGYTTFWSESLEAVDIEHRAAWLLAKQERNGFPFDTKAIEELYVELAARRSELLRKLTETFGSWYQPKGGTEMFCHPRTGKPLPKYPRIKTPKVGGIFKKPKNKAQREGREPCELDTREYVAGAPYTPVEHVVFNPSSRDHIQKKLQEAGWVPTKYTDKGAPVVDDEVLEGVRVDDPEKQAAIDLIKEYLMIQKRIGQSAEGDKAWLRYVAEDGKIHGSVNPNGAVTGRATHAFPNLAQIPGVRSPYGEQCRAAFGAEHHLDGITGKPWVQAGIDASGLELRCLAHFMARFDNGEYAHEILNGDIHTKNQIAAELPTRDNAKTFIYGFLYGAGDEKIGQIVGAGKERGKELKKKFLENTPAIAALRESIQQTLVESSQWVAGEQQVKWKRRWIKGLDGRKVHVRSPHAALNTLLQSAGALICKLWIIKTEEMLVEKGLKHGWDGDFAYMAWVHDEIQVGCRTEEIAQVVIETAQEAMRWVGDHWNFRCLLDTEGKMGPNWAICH
Sequence of T7 DNA polymerase (P0AA25 2-109, further chain): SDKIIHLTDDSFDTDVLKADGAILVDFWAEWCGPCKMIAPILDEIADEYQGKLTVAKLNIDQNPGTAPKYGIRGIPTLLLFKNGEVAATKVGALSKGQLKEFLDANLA
Protocol: as §1

T1 sequence (P06526 whole entry): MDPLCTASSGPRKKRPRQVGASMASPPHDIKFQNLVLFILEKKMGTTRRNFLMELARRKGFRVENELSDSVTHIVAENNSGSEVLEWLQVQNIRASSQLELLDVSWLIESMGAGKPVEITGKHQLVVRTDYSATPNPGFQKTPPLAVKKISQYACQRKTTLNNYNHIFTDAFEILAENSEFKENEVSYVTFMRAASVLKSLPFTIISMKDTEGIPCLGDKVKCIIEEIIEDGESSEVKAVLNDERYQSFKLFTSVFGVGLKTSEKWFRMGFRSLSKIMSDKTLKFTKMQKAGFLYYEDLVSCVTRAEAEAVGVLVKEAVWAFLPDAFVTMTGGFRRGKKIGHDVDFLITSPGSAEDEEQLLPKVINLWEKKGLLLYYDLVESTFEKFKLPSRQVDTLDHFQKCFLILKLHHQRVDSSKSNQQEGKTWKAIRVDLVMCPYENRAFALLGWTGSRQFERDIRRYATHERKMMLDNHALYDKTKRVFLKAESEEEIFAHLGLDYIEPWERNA

| Substance | number of contiguous modified bases added to the 3' terminus [1] | incorporation into DNA by Taq DNA polymerase in primer extension (Taq DNA polymerase) | accepted as substrate by Klenow polymerase in primer extension (Klenow polymerase) | accepted as substrate by exonuclease free Klenow polymerase in primer extension [2] | incorporation into DNA by T7 DNA polymerase in primer extension (T7 DNA polymerase) | substrate for TdT in oligonucleotide tailing / 3'-end labeling ([1]; Procedure 1, 20% denaturing PAGE, autoradiography) | substrate efficiency with T7 polymerase relative to Taq polymerase (T7 DNA polymerase; smaller fragments observed in T7 reaction) |
| --- | --- | --- | --- | --- | --- | --- | --- |
| maleimido-methylcyclohexane-dUTP [MCC-dUTP] | up to 5 bases | essentially the same degree of incorporation as PDP-dUTP | accepted as a substrate | accepted as a substrate | essentially the same degree of incorporation as PDP-dUTP |  |  |
| pyridine dithiopropanoate-dUTP [PDP-dUTP] | up to 10 bases | incorporated into DNA; also recorded: incorporated at several sites |  |  | incorporated into DNA | substrate for TdT | reduced substrate efficiency with T7 polymerase compared to Taq polymerase |

Reference: US20050003371A1, “Modified nucleotides and methods of labeling nucleic acids” (Stratagene, priority 2002, published 2005)
